According to patent US10138255B2, “Piperazine derivatives as HIV protease inhibitors” (Merck Sharp & Dohme Corp., priority 2014, dated 2018):

Each compound was assayed on HIV-1 (H9IIIB strain) (assay: Cell-Based HIV Infection Assay Using a Reporter (MT4-GFP cells)). Details: Human immunodeficiency virus 1, inflection point (IP) of viral growth inhibition; MT4-GFP cells infected with HIV-1 H9IIIB; 50% normal human serum; mean of at least two independent experiments; read-out: Cell Based IP (50% NHS).
Method in brief: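 MT4-GFP cells (HIV LTR-driven GFP) bulk-infected with HIV-1 H9IIIB at low MOI for 24 h, washed, then exposed to compounds in RPMI plus 50% normal human serum, 0.4% DMSO. Infected cells counted at 24 and 48 h; R0 = 48 h/24 h ratio, inhibition normalised to DMSO and triple-drug control; IP from 4-parameter fit.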
`N[C@H](C(=O)Nc1cccc(F)c1CC[C@H]1CN[C@@H]2CCCS(=O)(=O)N1C2)[C@@H](c1ccc(F)cc1)c1cnc(C(F)(F)F)nc1` [Example 132, (βS)-N-(2-{2-[(6R,9S)-2,2-dioxido-2-thia-1,7-diazabicyclo[4.3.1]dec-9-yl]ethyl)-3-fluorophenyl)-4-fluoro-β-[2-(trifluoromethyl)pyrimidin-5-yl]-L-phenylalaninamide] was tested, and the EC50 was 15 nM.
With `COC(=O)N[C@@H](C(=O)N[C@H]1CCC[C@@H]1CC[C@H]1CN[C@@H]2CCCS(=O)(=O)N1C2)[C@@H](c1ccc(Cl)cc1)C1CCN(C(=O)OCc2ccccc2)CC1` [Example 137, benzyl 4-{(1R,2R)-1-(4-chlorophenyl)-3-{[(1S,2R)-2-{2-[(6R,9S)-2,2-dioxido-2-thia-1,7-diazabicyclo[4.3.1]dec-9-yl]ethyl}cyclopentyl]amino}-2-[(methoxycarbonyl)amino]-3-oxopropyl}piperidine-1-carboxylate] the EC50 was 1300 nM.
`COC(=O)N[C@@H](C(=O)N[C@H]1CCC[C@@H]1CC[C@H]1CN[C@@H]2CCCS(=O)(=O)N1C2)[C@@H](c1ccc(Cl)cc1)C1CCN(C(=O)OC2(C)CC2)CC1` [Example 138, 1-methylcyclopropyl 4-{(1R,2R)-1-(4-chlorophenyl)-3-{[(1S,2R)-2-{2-[(6R,9S)-2,2-dioxido-2-thia-1,7-diazabicyclo[4.3.1]dec-9-yl]ethyl}cyclopentyl]amino}-2-[(methoxycarbonyl)amino]-3-oxopropyl}piperidine-1-carboxylate] gave an EC50 of 490 nM.
With `N[C@H](C(=O)Nc1cc(F)cc(F)c1CC[C@H]1CN[C@@H]2CCCS(=O)(=O)N1C2)[C@@H](c1ccc(Cl)cc1)C1CCOCC1` [Example 143, (βR)-4-chloro-N-(2-{2-[(6R,9S)-2,2-dioxido-2-thia-1,7-diazabicyclo[4.3.1]dec-9-yl]ethyl}-3,5-difluorophenyl)-β-(tetrahydro-2H-pyran-4-yl)-L-phenylalaninamide] the EC50 was 77 nM.
In the case of `COC(=O)N[C@H](C(=O)Nc1cc(F)cc(F)c1CC[C@H]1CN[C@@H]2CCCS(=O)(=O)N1C2)[C@@H](c1ccc(Cl)cc1)C1CCOCC1` [Example 144, methyl [(1S,2R)-2-(4-chlorophenyl)-1-[(2-{2-[(6R,9S)-2,2-dioxido-2-thia-1,7-diazabicyclo[4.3.1]dec-9-yl]ethyl}-3,5-difluorophenyl)carbamoyl]-2-(tetrahydro-2H-pyran-4-yl)ethyl]carbamate], the EC50 is reported as 21 nM.
For `N[C@H](C(=O)N[C@H]1CCCC[C@@H]1CC[C@H]1CN[C@@H]2CCCS(=O)(=O)N1C2)[C@H](c1cncc(F)c1)c1ccc(Cl)c(F)c1` [Example 145, (βS)-4-chloro-N-[(1S,2R)-2-{2-[(6R,9S)-2,2-dioxido-2-thia-1,7-diazabicyclo[4.3.1]dec-9-yl]ethyl}cyclohexyl]-3-fluoro-β-(5-fluoropyridin-3-yl)-L-phenylalaninamide], the EC50 was 76 nM.
In the case of `C[C@@H]1C[C@H]([C@H](c2ccc(F)cc2)[C@H](N)C(=O)Nc2c(F)ccc(F)c2CC[C@H]2CN[C@@H]3CCCS(=O)(=O)N2C3)C[C@H](C)O1` [Example 146, (βR)-β-[(2R,4r,6S)-2,6-dimethyltetrahydro-2H-pyran-4-yl]-N-(2-{2-[(6R,9S)-2,2-dioxido-2-thia-1,7-diazabicyclo[4.3.1]dec-9-yl]ethyl}-3,6-difluorophenyl)-4-fluoro-L-phenylalaninamide], the EC50 is reported as 25 nM.
Work on `COC(=O)N[C@H](C(=O)Nc1c(F)ccc(F)c1CC[C@H]1CN[C@@H]2CCCS(=O)(=O)N1C2)[C@@H](c1ccc(F)cc1)[C@H]1C[C@@H](C)O[C@@H](C)C1` [Example 147, methyl [(1S,2R)-2-[(2R,4r,6S)-2,6-dimethyltetrahydro-2H-pyran-4-yl]-1-[(2-{2-[(6R,9S)-2,2-dioxido-2-thia-1,7-diazabicyclo[4.3.1]dec-9-yl]ethyl}-3,6-difluorophenyl)carbamoyl]-2-(4-fluorophenyl)ethyl]carbamate] yielded an EC50 of 22 nM.
`CC1(C)C[C@@H]([C@H](c2ccc(F)cc2)[C@H](N)C(=O)N[C@H]2CCCC[C@@H]2CC[C@H]2CN[C@@H]3CCCS(=O)(=O)N2C3)CCO1` [Example 148, (βR)-β-[(4S)-2,2-dimethyhetrahydro-2H-pyran-4-yl]-N-[(1S,2R)-2-{2-[(6R,9S)-2,2-dioxido-2-thia-1,7-diazabicyclo[4.3.1]dec-9-yl]ethyl}cyclohexyl]-4-fluoro-L-phenylalaninamide] was tested, and the EC50 was 160 nM.
In the case of `C[C@@H]1C[C@H]([C@H](c2ccc(F)cc2)[C@H](N)C(=O)N[C@H]2CCCC[C@@H]2CC[C@H]2CN[C@@H]3CCCS(=O)(=O)N2C3)C[C@H](C)O1` [Example 149, (βR)-β-[(2R,4r,6S)-2,6-dimelhyltclrahydro-2H-pyran-4-yl]-N-[(1S,2R)-2-{2-[(6R,9S)-2,2-dioxido-2-thia-1,7-diazabicyclo[4.3.1]dec-9-yl]ethyl}cyclohexyl]-4-fluoro-L-phenylalaninamide], the EC50 is reported as 97 nM.
Work on `N[C@H](C(=O)N[C@H]1CCCC[C@@H]1CC[C@H]1CN[C@@H]2CCCS(=O)(=O)N1C2)[C@H](c1cncc(C(F)(F)F)c1)c1ccc(Cl)c(F)c1` [Example 150] yielded an EC50 of 22 nM.
In the case of `N[C@H](C(=O)Nc1cccc(F)c1CCC1CNC2CCCS(=O)(=O)N1C2)[C@H](CCC1CCCCO1)c1ccc(Cl)cc1` (stereo partly drawn) [Example 151, (βR)-4-chloro-N-{2-[2-(2,2-dioxido-2-thia-1,7-diazabicyclo[4.3.1]dec-9-yl)ethyl]-3-fluorophenyl}-β-[2-(tetrahydro-2H-pyran-2-yl)ethyl]-L-phenylalaninamide], the EC50 is reported as 23 nM.
In the case of `COC(=O)N[C@H](C(=O)Nc1cccc(F)c1CCC1CNC2CCCS(=O)(=O)N1C2)[C@H](CCC1CCCCO1)c1ccc(Cl)cc1` (stereo partly drawn) [Example 153, methyl [(1S,2R)-2-(4-chlorophenyl)-1-({2-[2-(2,2-dioxido-2-thia-1,7-diazabicyclo[4.3.1]dec-9-yl)ethyl]-3-fluorophenyl}carbamoyl)-4-(tetrahydro-2H-pyran-2-yl)butyl]carbamate], the EC50 is reported as 9.7 nM.
`COc1ccc([C@H](c2ccc(Cl)cc2)[C@H](N)C(=O)N[C@H]2CCCC[C@@H]2CC[C@H]2CN[C@@H]3CCCS(=O)(=O)N2C3)cn1` [Example 155, (βS)-4-chloro-N-[(1S,2R)-2-{2-[(6R,9S)-2,2-dioxido-2-thia-1,7-diazabicyclo[4.3.1]dec-9-yl]ethyl}cyclohexyl]-β-(6-methoxypyridin-3-yl)-L-phenylalaninamide] was tested, and the EC50 was 600 nM.
For `N[C@H](C(=O)N[C@H]1CCCC[C@@H]1CC[C@H]1CN[C@@H]2CCCS(=O)(=O)N1C2)[C@@H](c1ccc(F)cc1)C1CCOCC1` [Example 156, (βR)-N-[(1S,2R)-2-{2-[(6R,9S)-2,2-dioxido-2-thia-1,7-diazabicyclo[4.3.1]dec-9-yl]ethyl}cyclohexyl]-4-fluoro-β-(tetrahydro-2H-pyran-4-yl)-L-phenylalaninamide], the EC50 was 200 nM.
With `N[C@H](C(=O)N[C@H]1CCC[C@@H]1CC[C@H]1CN[C@@H]2CCCS(=O)(=O)N1C2)[C@@H](c1ccc(Cl)cc1)C1CCS(=O)(=O)CC1` [Example 157, (βR)-4-chloro-β-(1,1-dioxidotetrahydro-2H-thiopyran-4-yl)-N-[(1S,2R)-2-{2-[(6R,9S)-2,2-dioxido-2-thia-1,7-diazabicyclo[4.3.1]dec-9-yl]ethyl}cyclopentyl]-L-phenylalaninamide] the EC50 was 3400 nM.
For `N[C@H](C(=O)Nc1cccc(F)c1CC[C@H]1CNC2CCCS(=O)(=O)N1C2)[C@@H](c1ccc(Cl)cc1)C1CCS(=O)(=O)CC1` (stereo partly drawn) [Example 158, (βR)-4-chloro-β-(1,1-dioxidotetrahydro-2H-thiopyran-4-yl)-N-(2-{2-[(9S)-2,2-dioxido-2-thia-1,7-diazabicyclo[4.3.1]dec-9-yl]ethyl}-3-fluorophenyl)-L-phenylalaninamide], the EC50 was 110 nM.
For `COC(=O)N[C@H](C(=O)Nc1cccc(F)c1CC[C@H]1CNC2CCCS(=O)(=O)N1C2)[C@@H](c1ccc(Cl)cc1)C1CCS(=O)(=O)CC1` (stereo partly drawn) [Example 159, methyl {(1S,2R)-2-(4-chlorophenyl)-2-(1,1-dioxidotetrahydro-2H-thiopyran-4-yl)-1-[(2-{2-[(9S)-2,2-dioxido-2-thia-1,7-diazabicyclo[4.3.1]dec-9-yl]ethyl}-3-fluorophenyl)carbamoyl]ethyl}carbamate], the EC50 was 720 nM.
`N[C@H](C(=O)N[C@H]1CCCC[C@@H]1CC[C@H]1CN[C@@H]2CCCS(=O)(=O)N1C2)[C@@H](c1ccc(Cl)cc1)c1cc(F)cc(F)c1` [Example 160, (βS)-β-(4-chlorophenyl)-N-[(1S,2R)-2-{2-[(6R,9S)-2,2-dioxido-2-thia-1,7-diazabicyclo[4.3.1]dec-9-yl]ethyl}cyclohexyl]-3,5-difluoro-L-phenylalaninamide] was tested, and the EC50 was 22 nM.
`CC(C)[C@H](c1ccc(Cl)cc1)[C@H](N)C(=O)N[C@H]1CCCC[C@@H]1CC[C@H]1CN[C@@H]2CCCS(=O)(=O)N1C2` [Example 161, (βR)-4-chloro-N-[(1S,2R)-2-{2-[(6R,9S)-2,2-dioxido-2-thia-1,7-diazabicyclo[4.3.1]dec-9-yl]ethyl}cyclohexyl]-β-(1-methylethyl)-L-phenylalaninamide] showed an EC50 of 78 nM.
`C[C@@H]1CC([C@H](c2ccc(Cl)cc2)[C@H](N)C(=O)N[C@H]2CCCC[C@@H]2CC[C@H]2CN[C@@H]3CCCS(=O)(=O)N2C3)C[C@H](C)O1` (stereo partly drawn) [Example 162, (βR)-4-chloro-β-[(2R,6S)-2,6-dimethyltetrahydro-2H-pyran-4-yl]-N-[(1S,2R)-2-{2-[(6R,9S)-2,2-dioxido-2-thia-1,7-diazabicyclo[4.3.1]dec-9-yl]ethyl}cyclohexyl]-L-phenylalaninamide] gave an EC50 of 37 nM.
With `N[C@H](C(=O)Nc1cccc(F)c1CCC1CNC2CCCS(=O)(=O)N1C2)[C@@H](c1ccc(Cl)cc1)C1CCOC(CC(F)(F)F)C1` (stereo partly drawn) [Example 163, (βR)-4-chloro-N-{2-[2-(2,2-dioxido-2-thia-1,7-diazabicyclo[4.3.1]dec-9-yl)ethyl]-3-fluorophenyl}-β-[2-(2,2,2-trifluoroethyl)telrahydro-2H-pyran-4-yl]-L-phenylalaninamide] the EC50 was 19 nM.
